Data set [1] has as its system MCF-7 breast cancer cells. Briefly: Growth inhibition, 3 h treatment. It counts as cell-based, human. The conditions noted are these: MCF-7, 3 h treatment followed by 3 – 4 days of growth; outside the concentration range; average of at least six measurements.
The conditions of data set [2]: physiological conditions, 37 °C and pH 7; cited from earlier work.

Each structure is given as a SMILES string. Where only a bound is given, the exact number is not on record here.

On to `COc1cccc2c1C(=O)c1c(O)c3c(c(O)c1C2=O)C[C@@](O)(C(=O)CO)C[C@@H]3O[C@H]1C[C@H](NC(=O)OCc2ccc(NC(=O)[C@H](CCCCN)NC(=O)[C@H](Cc3ccccc3)NC(=O)[C@@H](C)N)cc2)[C@H](O)[C@H](C)O1.O=P(O)(O)O` [aFK-Dox, N-(N-(D-alanyl-L-phenylalanyl-L-lysyl)-p-aminobenzyloxycarbonyl)-doxorubicin], for which the IC50 in data set [1] is above −6 log M.

For the compound `COc1cccc2c1C(=O)c1c(O)c3c(c(O)c1C2=O)C[C@@](O)(C(=O)CO)C[C@@H]3O[C@H]1C[C@@H]2NCO[C@@H]2[C@H](C)O1` [doxaz, doxazolidine], the “half-life of hydrolysis to dox” value in data set [2] is listed as “approximately 3 min”.

The values above are taken from PMC3433255 (Journal of medicinal chemistry, 2012).
